# Reference: PMC12320245 (International Journal of Biological Sciences, 2025)
# What was measured:
# [1] = test system: PDE4 in primary hippocampal neurons; experiment: Scratch injury: PDE4 expression (immunocytochemistry and Western blot); type: cell-based, rat; conditions: scratch-AMX vs scratch-vehicle, 24 hours after scratch
# Procedure: Primary hippocampal neurons were obtained from embryonic day 18 (E18) Sprague-Dawley rat embryos. Pregnant rats were anesthetized using 2-3% isoflurane in a gas mixture of 70% nitrous oxide and 30% oxygen. Following euthanasia, the hippocampi were carefully dissected, minced, and enzymatically dissociated using TrypLE Express (Gibco, NY, USA) for 10 minutes at 37°C. The tissue was further mechanically dissociated using fire-polished glass pipettes, and the resulting cell suspension was filtered through a 70 μm cell strainer to remove debris. Neurons were seeded at a density of 3 × 10^5 cells per well in 24-well plates pre-coated with poly-L-lysine (Sigma-Aldrich, Saint Louis, MO, USA). Cells were maintained in neurobasal medium supplemented with B-27 (Thermo Fisher Scientific, Waltham, MA, USA), GlutaMAX (Gibco), and penicillin-streptomycin. […]
# A scratch injury model was used to mimic TBI in vitro. […] After the treatment period, neuronal damage and recovery were assessed using appropriate evaluation methods.
# Twenty-four hours after the scratch injury, cells were lysed using RIPA buffer (IBS-BR002, iNtRON, Republic of Korea) supplemented with protease and phosphatase inhibitors (Sigma, USA). […] Protein detection was performed using a chemiluminescence bioimaging device (Amersham Imager 680, Cytiva, MA, USA), and the results were analyzed to determine protein expression levels. […]
# [2] = test system: hippocampus of TBI rats; experiment: Controlled cortical impact TBI: hippocampal immunofluorescence; type: in vivo, rat
# Procedure: This study used male Sprague-Dawley rats weighing 300-350 g and aged 8 weeks, obtained from DBL Co. (Chungcheongbuk-do, Republic of Korea). The rats were housed in a controlled environment with a temperature of 20 ± 2 °C, a relative humidity of 55 ± 5%, and a 12-hour light/dark cycle. They were provided ad libitum access to food and water. To minimize stress associated with transportation, animals underwent a one-week acclimatization period before the start of the experiments. All experimental procedures were conducted in compliance with the guidelines of the National Institutes of Health for the care and use of laboratory animals and were approved by the Hallym University Institutional Animal Care and Use Committee (protocol # Hallym 2022-23, approved on July 15, 2022). This manuscript follows the principles outlined in the Animal research: reporting in vivo experiments (ARRIVE) guidelines.
# A controlled cortical impact (CCI) model was used to induce TBI in rats. Animals were anesthetized with 1-1.5% isoflurane in a 30:70 oxygen-to-nitrous oxide mixture and securely positioned in a stereotaxic frame. A 3 mm craniotomy was performed using a portable drill at a site 2.8 mm lateral to the midline and 3.0 mm posterior to Bregma. TBI was induced using an Impact One™ Stereotaxic Impactor (Leica Biosystems) equipped with a 3 mm flat-tip, set to deliver an impact at a velocity of 5 m/s and a depth of 3 mm. Throughout the procedure, body temperature was maintained at 36-37.5°C using a homeothermic blanket system to prevent hypothermia. […] At designated time points (3 hours, 24 hours, or 2 weeks post-injury), animals were euthanized via transcardial perfusion with saline, followed by 4% paraformaldehyde (PFA). Brains were post-fixed in 4% PFA for 1 hour, cryoprotected in 30% sucrose, and sectioned at a 30 μm thickness using a cryostat microtome (CM1850; Leica, Wetzlar, Germany). Brain sections were stored in cryoprotectant solution at 4°C until further analysis.
# Brain tissues were initially treated with 1.2% hydrogen peroxide at room temperature for 15 minutes to block endogenous peroxidase activity. Following this step, the tissues were washed three times in PBS for 10 minutes each. The tissues and fixed primary neurons were incubated overnight at 4°C with primary antibodies diluted in antibody diluent. […]. After incubation with primary antibodies, tissues were washed in PBS and incubated for 2 hours at room temperature on a shaker with fluorescent-conjugated secondary antibodies (1:250, Invitrogen). All samples were counterstained with DAPI (1:1000, Invitrogen) to visualize cell nuclei. The stained tissues were mounted on gelatin-coated slides, air-dried, and coverslipped using DPX mounting medium. To evaluate the fluorescent signals of labeled proteins, observations were performed using a Zeiss LSM 710 confocal microscope (Carl Zeiss) with sequential scanning mode for DAPI and Alexa 488 and 594. Stacks of images (1024 × 1024 pixels) from consecutive slices of 0.5-0.8 μm in thickness were obtained by averaging fifteen scans per slice, processed using ZEN 2 (blue edition, Carl Zeiss).
# [3] = hippocampal regions, 24 hours after TBI
# [4] = hippocampus, 24 hours after TBI
smiles,measurement,setting,value
"CC(C)c1ccc2oc3nc(N)c(C(=O)O)cc3c(=O)c2c1 [AMX, amlexanox]",PDE4 levels,[1],significantly reduced
same,hippocampal PDE4 expression (immunofluorescence),[2]; 3 hours post-TBI,markedly reduced PDE4 expression
same,4HNE staining (lipid peroxidation),[2]; [3],significantly reduced 4HNE staining
same,CD86 staining (M1 polarization),[2]; [3],decreased Iba-1 and CD86 staining
same,Iba-1 staining (microglial activation),[2]; [3],decreased Iba-1 and CD86 staining
same,p-p38 levels (immunofluorescence),"[2]; hippocampal regions, 24 hours post-TBI, vs TBI-vehicle",significantly reduced p-p38 levels
same,C3 intensity,[2]; [4],lower GFAP and C3 intensity
same,GFAP intensity (astrocytic activation),[2]; [4],lower GFAP and C3 intensity
